Assay results: paper PMC11061835, “Elucidating the Mechanism of Metabolism of Cannabichromene by Human Cytochrome P450s” (Journal of Natural Products, 2024)
Several values for one entry are separate records, joined by “and”; a condition that tells them apart may be missing. Equal values may be shown once.

Assays:
CYP3A4 = CYP3A4 (Homo sapiens, UniProt P08684); assay: Spectroscopic titration (Soret shift), CYP3A4; type: binding; parameters: His-tag; made in house; host or cells: E. coli DH-5α with pTGro7 plasmid; conditions: CYP3A4, absence of CPR
Chain of CYP3A4 (P08684 whole entry): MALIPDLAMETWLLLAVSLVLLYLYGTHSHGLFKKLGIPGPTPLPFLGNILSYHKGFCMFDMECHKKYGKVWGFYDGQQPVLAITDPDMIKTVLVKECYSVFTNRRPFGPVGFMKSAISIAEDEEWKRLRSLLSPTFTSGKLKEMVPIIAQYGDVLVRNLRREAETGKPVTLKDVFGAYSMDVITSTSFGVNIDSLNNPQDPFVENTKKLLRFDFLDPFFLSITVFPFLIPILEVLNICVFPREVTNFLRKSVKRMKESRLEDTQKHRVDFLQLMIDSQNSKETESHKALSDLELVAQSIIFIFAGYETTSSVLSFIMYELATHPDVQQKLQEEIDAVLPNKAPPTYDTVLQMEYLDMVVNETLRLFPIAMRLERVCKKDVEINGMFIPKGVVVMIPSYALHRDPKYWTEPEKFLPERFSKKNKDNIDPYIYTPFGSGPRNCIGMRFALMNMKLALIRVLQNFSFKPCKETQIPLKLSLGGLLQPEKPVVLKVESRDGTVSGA
Experimental: CBC binding to various CYPs was determined by analyzing the Soret shift from ∼417 to ∼390 nm. CBC (stock 10 mM) was dissolved in ethanol and titrated with different CYPs at room temperature. Buffer-exchanged CYP2J2, CYP2D6, CYP3A4, and CYP2C8 (concentrations of proteins were kept between 4 and 5 μM) were dissolved in 0.1 M phosphate buffer (pH = 7.4), and initial spectra were recorded from 200 to 800 nm with a prominent peak at 417 nm. The concentration of CBC was varied from 0 to 100 μM keeping the final concentration of substrate in EtOH not more than 1% in cuvette. 0–4 μL of stock CBC was added using a Hamilton syringe in both the sample and blank cuvettes. The mixture was incubated for 5 min at 37 °C, and absorbance spectra were recorded using a Cary Bio 300 UV–vis spectrophotometer (Agilent Technologies, Santa Clara, CA). To eliminate the background absorbance, we derived the final spectra by […].

CYP2J2 with CPR = target: T1, CYP2J2 with CPR (Homo sapiens, UniProt P51589); assay: NADPH activity assay, CYP2J2 with CPR; type: biochemical
T1 construct: His-tag; made in house; host or cells: E. coli DH-5α with pTGro7 plasmid (CYP)
T1 sequence (P51589 1-502): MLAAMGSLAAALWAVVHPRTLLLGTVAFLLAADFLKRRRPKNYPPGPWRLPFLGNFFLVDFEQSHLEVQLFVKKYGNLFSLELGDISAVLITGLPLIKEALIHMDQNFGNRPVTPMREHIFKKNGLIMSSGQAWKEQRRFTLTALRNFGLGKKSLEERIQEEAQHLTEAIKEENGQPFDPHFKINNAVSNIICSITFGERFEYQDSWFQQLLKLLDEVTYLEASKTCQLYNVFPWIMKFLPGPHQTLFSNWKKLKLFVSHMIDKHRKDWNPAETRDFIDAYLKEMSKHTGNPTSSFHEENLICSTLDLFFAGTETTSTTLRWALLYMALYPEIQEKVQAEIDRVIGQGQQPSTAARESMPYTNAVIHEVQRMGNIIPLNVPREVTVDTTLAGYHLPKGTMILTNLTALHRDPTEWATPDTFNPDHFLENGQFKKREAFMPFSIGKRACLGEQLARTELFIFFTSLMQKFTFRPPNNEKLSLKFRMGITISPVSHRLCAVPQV
T1 sequence (P16435 1-677 partner): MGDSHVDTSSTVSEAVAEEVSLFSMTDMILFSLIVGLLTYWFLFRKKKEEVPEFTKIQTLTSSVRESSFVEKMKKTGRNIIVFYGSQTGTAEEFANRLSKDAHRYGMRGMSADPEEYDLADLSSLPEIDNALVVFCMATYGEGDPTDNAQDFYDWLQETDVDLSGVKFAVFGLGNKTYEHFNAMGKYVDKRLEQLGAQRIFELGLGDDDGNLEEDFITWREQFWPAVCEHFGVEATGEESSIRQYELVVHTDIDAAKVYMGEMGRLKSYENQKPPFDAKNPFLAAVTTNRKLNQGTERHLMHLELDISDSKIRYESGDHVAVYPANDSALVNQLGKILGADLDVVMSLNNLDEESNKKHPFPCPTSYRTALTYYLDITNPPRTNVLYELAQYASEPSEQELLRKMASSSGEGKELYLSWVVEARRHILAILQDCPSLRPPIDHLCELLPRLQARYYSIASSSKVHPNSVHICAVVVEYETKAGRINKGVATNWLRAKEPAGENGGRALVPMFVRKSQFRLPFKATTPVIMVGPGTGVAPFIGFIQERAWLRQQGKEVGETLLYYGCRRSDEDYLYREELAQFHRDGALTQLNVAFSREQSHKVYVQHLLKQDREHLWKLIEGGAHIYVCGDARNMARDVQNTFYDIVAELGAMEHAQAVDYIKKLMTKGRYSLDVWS
Experimental: CYP-mediated NADPH oxidation was measured using kinetics mode in a Cary 300 UV–vis spectrometer (Agilent Technologies). 0.2 μM (final concentration) of CYP was taken in 0.1 M potassium phosphate buffer (pH 7.4) and incubated with 0.6 μM (final concentration) of CPR for 5 min with a reaction volume of 400 μL. The reaction was initiated with 200 μM of NADPH, and the absorption change was monitored over 10 min at 340 nm. The rate of NADPH consumption (or NADPH to NADP^+ conversion) was calculated by taking the molar extinction coefficient as 6.22 mM^–1 cm^–1 at 340 nm. To estimate the change in NADPH oxidation in the presence of CBC, both CYP and CPR were further incubated using CBC (final concentration 50 μM) for 5 min followed by measuring the change in absorbance at 340 nm as discussed earlier.

[1] = target: T2, CYP3A4 in the presence of CPR (Homo sapiens, UniProt P08684); assay: Spectroscopic titration, CYP3A4–CPR complex; type: binding
T2 construct: His-tag; made in house; host or cells: E. coli DH-5α with pTGro7 plasmid (CYP)
T2 sequence (P08684 whole entry, one chain of several): as the sequence (P08684 whole entry) above
Experimental: For CBC titration to CYP–CPR complex, initially CYPs were dissolved in 400 μL of 0.1 M phosphate buffer (pH = 7.4) keeping the concentration between […]. Following this 50 μL of CPR (50 μM stock) was added to both cuvettes, and the final concentration of both of the proteins was 5–6 μM. Both proteins were initially mixed and incubated for 5 min followed by titration with CBC in the same process as mentioned above. The substrate-bound spectra were then subtracted from substrate-free spectra, and the extent of binding was analyzed using Origin Pro 2020.

With `CCCCCc1cc(O)c2c(c1)OC(C)(CCC=C(C)C)C=C2` (stereo not drawn) [CBC, Cannabichromene] the “ΔAmax (spin state change due to heme perturbation)” value (CYP3A4) was 0.11 ± 0.00 and ~0.11, the Kd (CYP3A4; read-out: Kd(app)) was 9.57 µM and ~9.5 µM and the “NADPH rate (CYP+CPR+CBC)” value (CYP2J2 with CPR; CYP2J2, CBC 50 μM) was 21.7 nmol/min/nmol and ~20 nmol/min/nmol. The “percentage increase of NADPH consumption in the presence of CBC” value (CYP2J2 with CPR; CYP2J2, CBC 50 μM vs substrate-free) was about 60%, the “ΔAmax (spin state change due to heme perturbation)” value [1] was 0.03 ± 0.00 and 0.03–0.04 and the Kd ([1]; read-out: Kd(app)) was 1.66 µM and ~1.6 µM and < 10 µM.
